The subject of one test is MDA-MB-175VII. The test can be described thus: Cell viability assay (CellTiter Glo), MDA-MB-175VII. The test is classed as cell-based. As to conditions: Homo sapiens; MDA MB 175VII cells, 72 hours, CellTiter Glo; read-out: IC50, cell viability, MDA MB 175VII. The protocol: (§1) Cells were treated with compounds, and cell viability was measured as a metric of kinase inhibition.
(§2) The Ba/F3 cell line is IL-3-dependent mouse cell line derived from the C3H mouse strain. Ba/F3 cell lines were engineered to express human ERBB2 or EGFR kinases, rendering the cells IL-3 independent. The lines were generated via retroviral transduction utilizing a Moloney murine leukemia virus (MMLV) promoter, and constructs are stably integrated into the cell genome. The sequences of the ERBB2 and EGFR genes used were NCBI Reference Sequences NM_004448.3 and NM_005228.3, respectively.
(§3) Similarly, Ba/F3 cell lines engineered to express EGFR, ERBB2, or ERBB2 mutants were grown, harvested, counted and seeded at 3000 cells per well in 96-well plates. A subset of wells contained media only (low control, “LC”).
(§4) Table B1 provides the growth media and number of cells seeded per well for the each cell line.
(§5) Plates were placed in a 37° C., 5% CO2 incubator for 72 hours. Plates were then removed from the incubator and equilibrated for 15 minutes at room temperature. 40 μl of CellTiter Glo reagent (Promega) was added to measure the relative level of metabolically active cells by quantifying intracellular ATP concentrations. Plates were incubated for 30 minutes at room temperature, and luminescence was measured. Percent viability was normalized to a vehicle control only using the following formula: % viability=100×(Lumsample−LumLC)/(LumHC−Lum^LC). Graphical curves were fitted using a nonlinear regression model with a sigmoidal dose response.

Test [1] concerns the target BaF3-EGFR-V769_D770insASV (Homo sapiens, UniProt P00533, DUP767-769, cells depend on it). The test can be described thus: Cell viability assay, BaF3-EGFR-V769_D770insASV. It counts as cell-based, mouse. As to conditions: 72 hours, CellTiter Glo, read-out: IC50, cell viability, BaF3-EGFR-V769_D770insASV. Here is the method: as §1, §2, §3, §4
(§6) Plates were placed in a 37° C., 5% CO2 incubator for 72 hours. Plates were then removed from the incubator and equilibrated for 15 minutes at room temperature. 40 μl of CellTiter Glo reagent (Promega) was added to measure the relative level of metabolically active cells by quantifying intracellular ATP concentrations. Plates were incubated for 30 minutes at room temperature, and luminescence was measured. […]
(Cellular ATP, detected with luciferase, serves as a proxy for viable cell number.)

The next test concerns the target Ba/F3 ERBB2-L755S (Homo sapiens, UniProt P04626, L755S, cells depend on it). The experiment in a line: Cell viability assay, Ba/F3 ERBB2-L755S. As to conditions: 72 hours, CellTiter Glo, read-out: IC50, cell viability, Ba/F3 ERBB2-L755S. The test is classed as cell-based, mouse. The protocol:
as §1, §2, §3, §4, §5

For test [2], the target named is T1, phosphorylated ERBB2 (pERBB2) (Homo sapiens, UniProt P04626).
T1 construct: endogenous in cells; host or cells: BT-474
The experiment in a line: Detection of phosphorylated ERBB2 (pERBB2) by ELISA in BT-474 cells. As to conditions: four hours incubation. It counts as cell-based. Put shortly:
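BT-474 cells (2.0×10^4/well) treated 4 h at 37 °C, 5% CO2 with compounds in four-fold dilutions from 10 µM to 0.01 nM. Lysate pERBB2 measured by ELISA with TMB read at 450 nm; % relative activity scaled between no-cell wells and 0.1% DMSO-treated cells.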
(ELISA stands for enzyme-linked immunosorbent assay.)

Test [3] addresses BaF3_EGFR-D770-N771insSVD (Homo sapiens, UniProt P00533, DUP768-770, cells depend on it). The test can be described thus: Cell viability assay, BaF3_EGFR-D770-N771insSVD. It counts as cell-based, mouse. As to conditions: 72 hours, CellTiter Glo, read-out: IC50, cell viability, BaF3_EGFR-D770-N771insSVD. The protocol: as §1, §2, §3, §4, §6
Another test addresses Ba/F3 EGFR wt (Homo sapiens, UniProt P00533). The test can be described thus: Cell viability assay, Ba/F3 EGFR wt. The test is classed as cell-based, mouse. As to conditions: Ba/F3 EGFR wt cells, 72 hours, CellTiter Glo; read-out: IC50, cell viability, Ba/F3 EGFR wt. Here is the method: as §1, §2, §3, §4, §6
Test [4] deals with BaF3_EGFR-H773_V774insNPH (Homo sapiens, UniProt P00533, DUP771-773, cells depend on it). The test can be described thus: Cell viability assay, BaF3_EGFR-H773_V774insNPH. It counts as cell-based, mouse. As to conditions: 72 hours, CellTiter Glo, read-out: IC50, cell viability, BaF3_EGFR-H773_V774insNPH. Here is the method: as §1, §2, §3, §4, §6
Test [5] addresses Ba/F3 ERBB2 A775_G776insYVMA (Homo sapiens, UniProt P04626, DUP772-775, cells depend on it). The experiment in a line: Cell viability assay, Ba/F3 ERBB2 A775_G776insYVMA. As to conditions: Ba/F3 ERBB2 A775_G776insYVMA cells, 72 hours, CellTiter Glo; Tables B2-B4; read-out: IC50, cell viability, Ba/F3 ERBB2 A775_G776insYVMA. It counts as cell-based, mouse. Put shortly:
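IL-3-independent Ba/F3 lines stably expressing the human ERBB2 insertion mutants were seeded at 3000 cells/well and exposed to compounds for 72 h at 37 °C, 5% CO2. Viability was read as ATP by CellTiter-Glo luminescence. Curves were fitted by sigmoidal nonlinear regression.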

Bounds are passed on as bounds.

Chain of Ba/F3 ERBB2 A775_G776insYVMA (P04626 with tags, fused parts or gaps DUP772-775): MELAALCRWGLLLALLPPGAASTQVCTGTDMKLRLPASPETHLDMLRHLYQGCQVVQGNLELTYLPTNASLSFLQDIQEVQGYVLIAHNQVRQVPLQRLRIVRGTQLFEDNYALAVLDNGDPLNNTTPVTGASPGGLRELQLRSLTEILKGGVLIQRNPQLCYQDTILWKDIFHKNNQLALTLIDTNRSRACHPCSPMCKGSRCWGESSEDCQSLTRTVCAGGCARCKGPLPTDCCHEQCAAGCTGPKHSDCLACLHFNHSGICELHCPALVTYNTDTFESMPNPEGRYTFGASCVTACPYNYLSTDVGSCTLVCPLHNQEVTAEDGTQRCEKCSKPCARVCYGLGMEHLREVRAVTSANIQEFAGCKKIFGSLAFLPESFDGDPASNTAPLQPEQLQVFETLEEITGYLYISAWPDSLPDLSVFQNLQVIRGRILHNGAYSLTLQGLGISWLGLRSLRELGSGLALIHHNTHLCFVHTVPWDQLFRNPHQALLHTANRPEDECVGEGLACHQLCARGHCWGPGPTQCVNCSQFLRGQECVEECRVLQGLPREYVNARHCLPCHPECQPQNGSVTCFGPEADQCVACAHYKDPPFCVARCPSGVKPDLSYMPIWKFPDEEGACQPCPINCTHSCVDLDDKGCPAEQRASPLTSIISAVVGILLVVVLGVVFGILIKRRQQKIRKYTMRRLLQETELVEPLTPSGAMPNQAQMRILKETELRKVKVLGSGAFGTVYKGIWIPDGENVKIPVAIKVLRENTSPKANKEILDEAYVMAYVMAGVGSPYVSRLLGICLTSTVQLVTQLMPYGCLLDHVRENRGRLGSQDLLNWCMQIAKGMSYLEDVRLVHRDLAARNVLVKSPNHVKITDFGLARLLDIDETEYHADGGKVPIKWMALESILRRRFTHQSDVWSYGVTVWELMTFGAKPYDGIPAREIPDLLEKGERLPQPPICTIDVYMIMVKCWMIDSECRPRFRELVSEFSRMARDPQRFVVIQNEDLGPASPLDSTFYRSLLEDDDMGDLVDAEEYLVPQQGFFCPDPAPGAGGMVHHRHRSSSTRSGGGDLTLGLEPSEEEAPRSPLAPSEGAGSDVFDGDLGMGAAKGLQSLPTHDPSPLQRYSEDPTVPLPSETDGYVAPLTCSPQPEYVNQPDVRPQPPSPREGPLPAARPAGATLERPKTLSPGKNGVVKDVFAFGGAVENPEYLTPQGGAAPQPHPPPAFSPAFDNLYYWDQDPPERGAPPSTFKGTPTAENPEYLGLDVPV
Chain of Ba/F3 ERBB2-L755S (P04626 whole entry L755S): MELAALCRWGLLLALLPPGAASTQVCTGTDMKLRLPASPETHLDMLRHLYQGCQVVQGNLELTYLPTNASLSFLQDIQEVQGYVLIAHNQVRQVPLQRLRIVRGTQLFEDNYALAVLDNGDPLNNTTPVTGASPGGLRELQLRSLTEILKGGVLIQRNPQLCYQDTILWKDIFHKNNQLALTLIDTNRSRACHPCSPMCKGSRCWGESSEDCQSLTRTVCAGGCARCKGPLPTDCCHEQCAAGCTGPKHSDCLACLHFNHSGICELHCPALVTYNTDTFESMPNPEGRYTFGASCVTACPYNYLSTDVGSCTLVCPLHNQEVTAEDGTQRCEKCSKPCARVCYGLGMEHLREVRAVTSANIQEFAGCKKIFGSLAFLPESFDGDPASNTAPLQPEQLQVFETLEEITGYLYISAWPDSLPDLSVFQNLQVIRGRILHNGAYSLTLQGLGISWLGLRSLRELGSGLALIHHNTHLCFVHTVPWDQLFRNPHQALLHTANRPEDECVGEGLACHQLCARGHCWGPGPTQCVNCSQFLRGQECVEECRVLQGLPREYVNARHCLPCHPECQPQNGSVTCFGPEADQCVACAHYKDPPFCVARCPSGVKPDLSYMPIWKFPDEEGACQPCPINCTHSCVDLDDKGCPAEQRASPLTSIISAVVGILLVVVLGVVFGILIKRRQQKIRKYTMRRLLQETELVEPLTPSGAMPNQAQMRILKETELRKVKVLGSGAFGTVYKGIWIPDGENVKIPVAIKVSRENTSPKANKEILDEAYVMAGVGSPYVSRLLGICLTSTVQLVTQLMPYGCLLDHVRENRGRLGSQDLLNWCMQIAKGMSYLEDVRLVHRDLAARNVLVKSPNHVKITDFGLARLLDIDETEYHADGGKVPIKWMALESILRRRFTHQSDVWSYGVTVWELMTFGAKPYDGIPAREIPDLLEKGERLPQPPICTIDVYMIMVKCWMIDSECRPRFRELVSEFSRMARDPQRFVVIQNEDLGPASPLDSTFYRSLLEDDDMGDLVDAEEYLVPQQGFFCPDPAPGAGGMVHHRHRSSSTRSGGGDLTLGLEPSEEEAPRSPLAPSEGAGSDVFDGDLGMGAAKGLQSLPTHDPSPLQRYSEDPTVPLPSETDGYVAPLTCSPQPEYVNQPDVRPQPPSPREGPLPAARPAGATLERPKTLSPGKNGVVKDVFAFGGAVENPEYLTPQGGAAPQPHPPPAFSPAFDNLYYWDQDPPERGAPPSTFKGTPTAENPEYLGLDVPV
T1 sequence (P04626 23-1255): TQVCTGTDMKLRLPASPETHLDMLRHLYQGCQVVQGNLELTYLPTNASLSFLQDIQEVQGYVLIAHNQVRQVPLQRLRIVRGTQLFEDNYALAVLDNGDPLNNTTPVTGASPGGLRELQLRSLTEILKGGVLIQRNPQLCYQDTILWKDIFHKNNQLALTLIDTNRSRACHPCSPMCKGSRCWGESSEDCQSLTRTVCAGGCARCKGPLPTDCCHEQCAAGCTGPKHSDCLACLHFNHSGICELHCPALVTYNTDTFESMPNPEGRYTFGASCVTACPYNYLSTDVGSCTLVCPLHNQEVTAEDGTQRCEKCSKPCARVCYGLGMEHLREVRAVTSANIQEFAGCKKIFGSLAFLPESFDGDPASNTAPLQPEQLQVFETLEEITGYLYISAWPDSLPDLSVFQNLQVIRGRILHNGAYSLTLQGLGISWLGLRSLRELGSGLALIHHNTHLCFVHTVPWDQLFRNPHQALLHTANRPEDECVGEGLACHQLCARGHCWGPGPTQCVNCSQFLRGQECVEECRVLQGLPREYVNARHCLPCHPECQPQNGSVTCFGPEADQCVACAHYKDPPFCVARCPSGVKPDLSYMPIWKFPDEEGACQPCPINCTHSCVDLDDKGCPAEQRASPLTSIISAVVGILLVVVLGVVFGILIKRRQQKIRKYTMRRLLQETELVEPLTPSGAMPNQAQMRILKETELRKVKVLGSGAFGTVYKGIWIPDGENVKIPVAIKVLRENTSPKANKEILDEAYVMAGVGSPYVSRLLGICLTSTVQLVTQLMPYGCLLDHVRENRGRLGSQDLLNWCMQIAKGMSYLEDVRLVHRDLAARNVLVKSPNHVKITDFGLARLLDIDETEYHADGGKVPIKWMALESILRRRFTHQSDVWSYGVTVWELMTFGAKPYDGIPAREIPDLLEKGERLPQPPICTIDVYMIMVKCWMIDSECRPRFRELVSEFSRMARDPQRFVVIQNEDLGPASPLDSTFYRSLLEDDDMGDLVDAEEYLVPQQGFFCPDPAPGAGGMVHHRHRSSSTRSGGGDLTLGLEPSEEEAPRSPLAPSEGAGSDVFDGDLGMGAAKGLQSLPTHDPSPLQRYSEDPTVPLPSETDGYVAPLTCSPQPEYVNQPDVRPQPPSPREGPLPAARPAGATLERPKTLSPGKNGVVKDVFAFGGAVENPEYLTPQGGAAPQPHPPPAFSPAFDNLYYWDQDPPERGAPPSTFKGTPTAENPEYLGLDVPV
Chain of BaF3_EGFR-D770-N771insSVD (P00533 with tags, fused parts or gaps DUP768-770): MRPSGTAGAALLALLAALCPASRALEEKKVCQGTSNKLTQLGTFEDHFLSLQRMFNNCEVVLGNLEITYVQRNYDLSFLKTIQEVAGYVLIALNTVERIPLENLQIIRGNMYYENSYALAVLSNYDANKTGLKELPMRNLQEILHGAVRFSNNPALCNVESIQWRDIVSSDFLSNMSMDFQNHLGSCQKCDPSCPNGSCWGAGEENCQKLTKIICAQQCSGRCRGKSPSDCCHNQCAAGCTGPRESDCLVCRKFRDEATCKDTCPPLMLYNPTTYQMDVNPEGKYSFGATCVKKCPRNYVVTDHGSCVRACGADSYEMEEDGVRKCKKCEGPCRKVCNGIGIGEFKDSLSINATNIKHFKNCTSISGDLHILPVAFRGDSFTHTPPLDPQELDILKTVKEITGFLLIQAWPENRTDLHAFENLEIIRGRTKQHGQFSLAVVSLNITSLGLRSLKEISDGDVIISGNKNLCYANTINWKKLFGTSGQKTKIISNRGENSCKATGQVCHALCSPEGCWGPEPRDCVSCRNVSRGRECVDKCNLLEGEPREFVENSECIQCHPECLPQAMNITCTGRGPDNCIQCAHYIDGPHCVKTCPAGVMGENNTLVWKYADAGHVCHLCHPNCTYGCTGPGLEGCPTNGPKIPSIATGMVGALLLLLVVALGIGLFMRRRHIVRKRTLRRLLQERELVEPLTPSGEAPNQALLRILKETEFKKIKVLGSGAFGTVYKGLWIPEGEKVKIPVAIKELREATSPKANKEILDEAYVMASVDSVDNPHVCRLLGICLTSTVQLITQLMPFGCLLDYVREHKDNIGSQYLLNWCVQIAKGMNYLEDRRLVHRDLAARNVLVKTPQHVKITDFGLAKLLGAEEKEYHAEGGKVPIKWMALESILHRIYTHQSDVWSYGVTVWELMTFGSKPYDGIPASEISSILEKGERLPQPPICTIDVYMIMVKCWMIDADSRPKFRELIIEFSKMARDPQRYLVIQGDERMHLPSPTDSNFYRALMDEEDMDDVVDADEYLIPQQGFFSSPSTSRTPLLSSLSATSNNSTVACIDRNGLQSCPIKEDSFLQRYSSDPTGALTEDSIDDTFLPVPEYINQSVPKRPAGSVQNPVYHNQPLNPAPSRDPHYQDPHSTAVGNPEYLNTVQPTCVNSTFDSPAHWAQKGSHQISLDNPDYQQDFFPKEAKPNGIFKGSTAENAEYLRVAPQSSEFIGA

As for `C=C1CCN(c2ccc3ncnc(Nc4ccc(Oc5ccn6ncnc6c5)c(C)c4)c3c2)C1=O` [Compound 1, 1-[4-[(3-methyl-4-[[1,2,4]triazolo[1,5-a]pyridin-7-yloxy]phenyl)amino]quinazolin-6-yl]-3-methylidenepyrrolidin-2-one], the IC50 (usually the concentration that gives 50% inhibition) with MDA-MB-175VII amounted to 15 nM; in test [2], 7.94 nM. For the same compound, the GI50 in test [1] was 4510 nM; at Ba/F3 ERBB2-L755S, 13 nM; in test [3], 4060 nM; at Ba/F3 EGFR wt it was above 10000 nM; in test [4], 9830 nM; in test [5], 28 nM.
For `C=C1CCN(c2ccc3ncnc(Nc4ccc(Oc5ccn6ccnc6c5)c(C)c4)c3c2)C1=O` [Compound 4, 1-[4-[(4-[imidazo[1,2-a]pyridin-7-yloxy]-3-methylphenyl)amino]quinazolin-6-yl]-3-methylidenepyrrolidin-2-one], the results for the GI50 (at Ba/F3 ERBB2-L755S; in test [5]) were 14 nM and 16 nM, respectively. The same compound yielded an IC50 in test [2] of 5.17 nM.

The values above are taken from patent US20240116921A1, “LACTAM (HETERO)[…] DERIVATIVES AS INHIBITORS OF ERBB2” (EnLiven Therapeutics, Inc., priority 2020, published 2024).
